Reference: article PMC2191358 (The Journal of Experimental Medicine, 1994)
Residues, ends and D or L forms follow the SMILES beside them.

Tests used:
[1] = target: TAP translocator (H-2d-derived microsomes) (Mus musculus, UniProt P21958+P36371); assay: biochemical
[2] = system: mouse microsomes; assay: Efflux of labeled peptide from loaded mouse microsomes; assay type: biochemical; conditions: mouse liver microsomes in the presence of ATP; HPLC; data not shown
[3] = system: mouse TAP1/TAP2 translocator; assay: Accumulation of labeled peptide in mouse liver microsomes; conditions: microsomes from TAP1 mutant (C57Bl/6 x 129/SV) mice; means of duplicates

TAP translocator (H-2d-derived microsomes), sequence (P21958 whole entry): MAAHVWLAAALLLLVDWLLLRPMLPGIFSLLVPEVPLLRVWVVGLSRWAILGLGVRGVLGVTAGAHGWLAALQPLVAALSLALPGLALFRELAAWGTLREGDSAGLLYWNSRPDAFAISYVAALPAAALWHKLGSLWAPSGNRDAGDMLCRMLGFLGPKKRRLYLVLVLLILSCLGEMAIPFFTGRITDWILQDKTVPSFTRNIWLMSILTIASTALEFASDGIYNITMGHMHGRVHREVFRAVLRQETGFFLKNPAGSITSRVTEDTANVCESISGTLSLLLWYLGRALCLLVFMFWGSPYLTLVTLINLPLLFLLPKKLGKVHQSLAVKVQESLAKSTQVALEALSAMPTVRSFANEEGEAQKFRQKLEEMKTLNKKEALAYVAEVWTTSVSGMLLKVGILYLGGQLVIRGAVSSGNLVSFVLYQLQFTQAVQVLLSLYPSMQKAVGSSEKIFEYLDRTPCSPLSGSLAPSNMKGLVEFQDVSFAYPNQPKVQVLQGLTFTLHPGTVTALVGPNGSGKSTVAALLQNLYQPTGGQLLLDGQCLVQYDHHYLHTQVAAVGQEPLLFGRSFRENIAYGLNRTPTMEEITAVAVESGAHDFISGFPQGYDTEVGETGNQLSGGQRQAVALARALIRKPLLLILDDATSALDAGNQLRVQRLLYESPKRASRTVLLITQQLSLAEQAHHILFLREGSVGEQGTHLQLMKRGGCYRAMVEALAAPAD
TAP translocator (H-2d-derived microsomes), sequence (P36371 whole entry): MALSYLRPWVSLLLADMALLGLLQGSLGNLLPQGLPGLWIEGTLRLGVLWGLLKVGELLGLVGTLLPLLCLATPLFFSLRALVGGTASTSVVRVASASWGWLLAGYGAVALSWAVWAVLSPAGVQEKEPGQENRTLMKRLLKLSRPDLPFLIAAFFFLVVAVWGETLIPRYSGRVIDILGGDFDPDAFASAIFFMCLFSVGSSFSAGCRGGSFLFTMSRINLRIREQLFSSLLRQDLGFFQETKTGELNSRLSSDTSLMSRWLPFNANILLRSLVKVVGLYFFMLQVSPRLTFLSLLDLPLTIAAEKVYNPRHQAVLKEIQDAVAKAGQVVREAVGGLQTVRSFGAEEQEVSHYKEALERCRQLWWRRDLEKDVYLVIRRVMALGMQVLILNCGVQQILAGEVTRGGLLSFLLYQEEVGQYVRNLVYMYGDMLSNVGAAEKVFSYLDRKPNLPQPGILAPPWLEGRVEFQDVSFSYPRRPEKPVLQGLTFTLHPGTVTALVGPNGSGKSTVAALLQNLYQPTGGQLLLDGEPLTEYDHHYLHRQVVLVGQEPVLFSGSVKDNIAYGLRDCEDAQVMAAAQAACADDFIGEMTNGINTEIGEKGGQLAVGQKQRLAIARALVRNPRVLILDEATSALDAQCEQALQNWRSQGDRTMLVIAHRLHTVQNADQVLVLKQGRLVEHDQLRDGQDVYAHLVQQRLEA

Row | Compound | IC50 [1] [µM] | Integrity of material accumulated by and released from microsomes [2] | Accumulation of labeled peptide in TAP- microsomes [3]
1 | CC(C)C[C@H](NC(=O)[C@H](C)NC(=O)[C@H](CCCNC(=N)N)NC(=O)[C@@H](NC(=O)[C@H](CCCNC(=N)N)NC(=O)[C@H](CCC(N)=O)NC(=O)[C@H](Cc1ccc(O)cc1)NC(=O)[C@@H](N)[C@@H](C)O)[C@@H](C)O)C(=O)N[C@H](C(=O)O)C(C)C (H-TYQRTRALV-OH) | 3 | – | –
2 | CC(C)C[C@H](NC(=O)[C@H](C)NC(=O)[C@@H]1CCCN1C(=O)[C@H](Cc1ccc(O)cc1)NC(=O)[C@H](CC(N)=O)NC(=O)CNC(=O)[C@@H]1CCCN1C(=O)[C@H](C)NC(=O)[C@@H](N)Cc1ccccc1)C(N)=O [FAPGNYPAL] | 3 | largely intact | –
3 | TYNRTRALI | – | – | do not accumulate
